Experimental data as given in patent US7662547B2, “Compositions and methods for detecting and treating HIV infections” (priority 2006, dated 2010).

Legend:
[1] = tested on: HIV-1; assay: HIV-1 latent infection of resting CD4 T cells, viral replication assay (p24 ELISA) after anti-CD3/CD28 activation; type: cell-based, HIV-1NL4-3; settings: for HIV replication in resting T cells: 5 minutes before infection
Method: Virus stocks of the HIV-1NL4-3 (Adachi et al. J Virol 59(2), 284-91 (1986)) were prepared by transfection of HeLa cells with cloned proviral DNA as described in Wu and Marsh (2001). Supernatant was harvested at 48 hours, and filtered through a 0.45 μm nitrocellulose membrane. Virus titer (TCID50) was measured by infection of a Rev-CEM indicator cell line which was constructed through stable integration of a Rev-dependent GFP expression lentiviral vector into CEM-SS. […] For infection of resting CD4 T cells, viruses were first titrated to determine minimal levels detectable by p24 ELISA in replication assays described below. Unless specified, for most replication assays, 10^3.5 to 10^4.5 TCID50 units of HIV-1 were used to infect 10^6 cells. For infection procedure, CD4 T cells were incubated with the virus for 2 hours, then washed twice with medium to remove unbound virus. Infected cells were resuspended into fresh RPMI 1604 medium supplemented with 10% heat-inactivated fetal bovine serum, penicillin (50 U/ml) and streptomycin (50 μg/ml) at a density of 10^6 per ml and incubated for 5 days without stimulation. Cells were activated at day 5 with anti-CD3/CD28 magnetic beads at 4 beads per cells. For viral replication assay, 10% of infected cells were taken at 1, 3, 5, 6, 7, 8, 9 days post infection. Cells were pelleted and the supernatant was saved for p24 ELISA. Levels of p24 in the supernatant were measured by using Coulter HIV-1 p24 Assay Kit (Beckman Coulter, Inc. Miami, Fla.). Plates were kinetically read using ELx808 automatic microplate reader (Bio-Tek Instruments, Inc. Winooski, Vt.) at 630 nm.
Resting CD4 T cells were treated with pertussis toxin (Sigma, St. Louis, Mo.) at a final concentration of 100 ng/ml for 2 hours, then infected with HIV-1. Following infection, cells were washed 2 to 3 times to remove cell-free virus and the inhibitor. Cells were treated with Jasplakinolide (Molecular Probes, Eugene, Oreg.) for 1 to 2 hours or Latrunculin A (Biomol, Plymouth Meeting, Pa.) for 5 minutes at various concentrations, washed twice with medium, then infected with HIV-1. Following infection, cells were washed twice to remove cell free virus. Cells were treated with 200 nM of Staurosporine (Biomol, Plymouth Meeting, Pa.) for 2 hours, then infected with HIV-1. Following infection, cells were washed twice to remove cell-free virus and the inhibitor.
Resting CD4 T cells were treated with S3 or Q104 for I to 2 hours, then infected with HIV-1. Following infection, cells were washed 2 to 3 times to remove cell-free virus and the peptides.
Effects of Jas on LFA-1 activation also were tested. Jas treated or untreated resting T cells were activated by anti-CD3/CD28 bead and stained with human ICAM-1/Fc chimera and analyzed by flow cytometer. The effects of Jas on IL-2 secretion also were measured. […] Cells were treated with Jas for 2 hours, washed, infected with HIV-1 for 5 days, then activated by anti-CD3/CD28 bead. […] Following infection, cellular DNA was PCR amplified for viral late DNA and β-actin pseudogene. Cells were pre-activated with PHA plus IL-2, then treated and infected as in FIG. 3A. […] CEM-SS cell were treated and infected as in FIG. 3A.

[2] = tested on: F-actin; assay: FITC-phalloidin staining of F-actin and flow cytometry in resting CD4 T cells; type: cell-based, human
Method: Cells were stimulated with HIV-1 or gp120 IIIB (Microbix Biosystems Inc. Toronto, Ontario). F-actin staining using FITC-labeled phalloidin (Sigma, St. Louis, Mo.) was carried out according to the manufacture's recommendation with minor modifications. Briefly, each staining was carried out by using 10^6 cells. Cells were pelleted, fixed and permeabilized with cytoperm/cytofix (BD biosciences, San Diego, Calif.) for 20 min on ice, followed by stained with 5 μl of 0.3 uM FITC-labeled phalloidin for 30 min at 4° C. After wash, cells were resuspended in 1% paraformaldehyde and analyzed on FACSCalibur (BD Biosciences, San Jose, Calif.)

[3] = tested on: IL-2 secretion; assay: IL-2 ELISA of cell culture supernatant after T cell activation; type: cell-based, human; settings: 200 nM, treated, incubated and activated
Method: IL-2 release into cell culture supernatant was detected by a human IL-2 ELISA development kit (PeproTech, Rocky Hill, N.J.) according to the manufacture's instruction. Briefly, each well of a plate was coated with 100 μl of capture antibody (1 μg/ml) and incubated overnight at room temperature, then washed and blocked with 300 μl of blocking solution for one hour at room temperature. Samples in plates were incubated for 1 hour at 37° C., then washed and incubated with 100 μl of detection antibody (0.5 μg/ml) for 1 hour at 37° C. Plates were washed and incubated with 100 μl of the avidin-peroxidase conjugate (1:2000 dilution) for 30 minutes at room temperature followed by washing and incubation with 100 μl of Tetramethylbenzidine (TMB) substrate buffer. Plates were kinetically read using ELx808 automatic microplate reader (Bio-Tek Instruments, Inc. Winooski, Vt.) at 630 nm.

[4] = tested on: cofilin; assay: Cofilin and phospho-cofilin western blot in resting CD4 T cells; type: cell-based, human
Method: For activation of resting CD4 T cells with PHA (3 μg/ml) (Sigma, St. Louis, Mo.) plus IL-2 (100 U/ml) (Roche Applied Science, Indianapolis, Ind.), cells were cultured in the presence of these agents for 1 day.
Briefly, 10^6 of CD4 T cells were lysed in NuPAGE LDS Sample Buffer (Invitrogen, Carlsbad, Calif.) followed by sonication. Samples were heated at 70° C. for 10 minutes before loading, then separated by SDS-PAGE and transferred onto nitrocellulose membranes (Invitrogen, Carlsbad, Calif.). The membranes were washed in TBS for 5 minutes and then blocked for 30 minutes at room temperature with Starting Block blocking buffer (Pierce, Rockford, Ill.). The blots were incubated with either a rabbit anti-cofilin antibody (1:1000 dilution) (Cell Signaling, Danvers, Mass.) or a rabbit anti-phospho-cofilin (ser3) antibody (1:1000 dilution) (Cell Signaling, Danvers, Mass.) diluted in 5% BSA-TBST and rocked at room temperature for 1 hour. The blots were washed three times for 15 minutes each and then incubated with a goat anti-rabbit horseradish peroxidase-conjugated antibodies (KPL, Inc. Gaithersburg, Md.) diluted in 2.5% skim milk-TBST (1:1000) for 1 hour. […] Images were captured with a CCD camera (Fluor Chem 9900 Imaging Systems) (Alpha Innotech, San Leandro, Calif.) and analyzed and processed by NIH-Image Version 163.

[5] = biological target: T1, LIMK1 (Homo sapiens, UniProt P53667); assay: In vitro LIMK1 kinase assay with GST-tagged recombinant human cofilin; type: biochemical
T1 construct: purchased Upstate Biotechnologies, Lake Placid, N.Y
T1 sequence (P53667 whole entry, species assumed): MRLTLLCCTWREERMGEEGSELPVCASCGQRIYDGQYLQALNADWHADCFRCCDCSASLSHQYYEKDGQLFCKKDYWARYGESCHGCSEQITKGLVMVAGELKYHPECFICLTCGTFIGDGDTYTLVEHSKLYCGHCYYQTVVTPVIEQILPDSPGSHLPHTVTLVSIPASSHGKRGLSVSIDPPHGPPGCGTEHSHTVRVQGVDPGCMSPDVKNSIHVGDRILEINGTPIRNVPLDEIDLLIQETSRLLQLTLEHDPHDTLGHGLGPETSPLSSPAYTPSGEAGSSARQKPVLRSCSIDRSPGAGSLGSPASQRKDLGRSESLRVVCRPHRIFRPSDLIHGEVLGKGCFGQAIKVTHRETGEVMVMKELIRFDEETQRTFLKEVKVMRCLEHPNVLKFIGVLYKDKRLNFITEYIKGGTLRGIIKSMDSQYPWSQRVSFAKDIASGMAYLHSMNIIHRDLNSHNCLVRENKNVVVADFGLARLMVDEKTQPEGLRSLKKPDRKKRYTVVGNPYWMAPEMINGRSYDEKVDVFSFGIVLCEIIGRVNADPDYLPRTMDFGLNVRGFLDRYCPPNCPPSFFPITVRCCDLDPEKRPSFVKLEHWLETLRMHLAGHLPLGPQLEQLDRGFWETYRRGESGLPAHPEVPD
Method: LIMK1 Kinase assays were performed using purified LIMK1 and GST-tagged recombinant human cofilin (Upstate Biotechnologies, Lake Placid, N.Y.) according to the manufacture's recommendation with minor modifications. Briefly, 18 μg of recombinant cofilin was incubated in 1× Kinase reaction buffer ([…], pH7.0, 200 μM EDTA) in the presence or absence of Staurosporine (200 nM) or the S3, Q104 peptides. LIMK1 was serially diluted in dilution buffer (20 mM MOPS-NaOH pH 7.0, 1 mM EDTA, 0.01% Brij-35, 5% glycerol, 0.1% 2-ME, 1 mg/ml BSA), then added into the reaction along with the ATP buffer (10 mM Magnesium Acetate, 100 μM ATP). The reaction was incubated for 15 minutes at 30° C. with constant agitation. The reaction was stopped by adding 25% (V/V) of 4×LDS sample buffer for SDS-PAGE and heated for 10 minutes at 70° C. Cofilin phosphorylation was analyzed by SDS-PAGE and western blotting using a rabbi anti-phospho-cofilin (ser3) antibody (Cell Signaling, Danvers, Mass.) as described in Example 10.

[6] = tested on: HIV; settings: Doranz et al. 1999; cited from earlier work
[7] = 200 nM added during T cell activation at day 5

Molecule: C/C1=C/C(=O)O[C@@H]2C[C@@H](CC[C@H](C)/C=C\C=C\CC1)O[C@@](O)([C@@H]1CSC(=O)N1)C2 [Lat-A, Latrunculin A]
- HIV replication in resting T cells, treatment before vs after infection ([1]; 25 nM, 5 minutes): enhancement was seen only in cells pretreated with Lat-A prior to infection
- HIV replication in resting T cells ([1]; 25 nM): Enhanced HIV replication
- HIV replication in resting T cells ([1]; 250 nM): donor-dependent variations from enhancement to inhibition
- HIV replication in resting T cells ([1]; 2.5 μM): inhibited viral replication in all donors
- actin depolymerization ([2]; 25 nM, 5 min): actin depolymerization to an extent similar to that induced by HIV-1
- actin depolymerization ([2]; 2.5 μM to 250 nM, 5 min): dramatic actin depolymerization

Molecule: CN[C@@H]1C[C@H]2O[C@@](C)([C@@H]1OC)n1c3ccccc3c3c4c(c5c6ccccc6n2c5c31)C(=O)NC4 [staurosporine]
- IL-2 secretion [3]: slight inhibition
- HIV-1 replication [1, 7]: completely abolished HIV-1 replication
- T cell activation [1, 7]: inhibited T cell activation
- HIV replication in resting CD4 T cells ([1]; 200 nM briefly before infection): dramatic enhancement
- actin depolymerization ([2]; 200 nM): actin depolymerization also was observed
- cofilin phosphorylation in resting CD4 T cells ([4]; 200 nM, no stimulation): gradual dephosphorylation and activation of cofilin
- LIMK1 inhibition compared with S3 peptide ([5]; 200 nM): much stronger
- phosphorylation of cofilin by LIMK1 ([5]; 200 nM): directly inhibited

Molecule: S3: Synthetic peptide MASGVAVSDGVIKVFN (SEQ ID NO: 3), N-terminal 16 amino acids of human cofilin
- viral replication in resting CD4 T cells ([1]; pre-treated 2 hours, then infected): enhanced viral replication
- cofilin phosphorylation by LIMK1 ([5]; peptide): inhibited cofilin phosphorylation

Molecule: SDF-1: the natural ligand for CXCR4
- F-actin change ([2]; 50 ng/ml): rapid actin polymerization

Molecule: pertussis toxin [P.T]
- viral replication in resting T cells ([1]; 100 ng/ml for 2 hours before infection): inhibited viral replication
- inhibition of viral induced actin depolymerization ([2]; 100 ng/ml for 2 hours, then HIV-1): completely inhibited
- inhibition of HIV-1 induced cofilin activation ([4]; pretreated, then infected with HIV-1): Complete inhibition
- viral replication in CXCR4 transfected U87-MG cells [6]: did not affect viral replication
